In US20200268832A1, “COMPOSITIONS FOR DELIVERY TO AND TREATMENT OF ATHEROSCLEROTIC PLAQUES” (Sanford Burnham Prebys Medical Discovery Institute, priority 2015, published 2020):
“Also recorded” adds a separate entry of the source. Bridges are numbered along the chain shown (N, C = ends). Where no end group is shown, it is not given here. FAM = 5(6)-carboxyfluorescein; Ahx = NCCCCCC(=O)O

Assays:
p32 protein [1] = biological target: T1, p32 protein (Homo sapiens, UniProt Q07021); assay: Fluorescence polarization assay: displacement of FAM-TT1 from p32 (HTS, dose response, unlabeled peptide competition); assay type: binding; details: for dose-dependent inhibition of FAM-TT1 binding to p32: 8.25 μM to 100 μM; for inhibition at 25 µM: high-throughput screen hits, inhibition of TT1-p32 interaction, library compounds 25 μM (Table 1), b410 says 100 μM; for inhibition at 100 µM: highest concentration used, read-out: inhibition of FAM-TT1 binding to p32 in FP assay
T1 construct: 6xHis; host or cells: Rosetta-gami-2 cells (Novagen); an E. coli strain by own knowledge
T1 sequence (Q07021 74-282): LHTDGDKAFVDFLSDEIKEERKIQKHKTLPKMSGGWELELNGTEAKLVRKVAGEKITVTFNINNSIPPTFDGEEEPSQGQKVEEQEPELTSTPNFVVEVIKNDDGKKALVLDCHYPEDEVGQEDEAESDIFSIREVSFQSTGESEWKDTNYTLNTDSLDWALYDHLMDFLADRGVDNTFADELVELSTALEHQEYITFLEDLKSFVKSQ
Protocol: Fluorescence polarization (FP)-based assay was used for solution-based screening of compound libraries for p32 binding compounds. […] In FP assay, peptide conjugated with a fluorescent label (fluorescein-AM, FAM) is excited with polarized light. […] 6×-His-Tagged p^32 was expressed in Rosetta-gami-2 cells (Novagen). The protein was purified by IMAC using HIS-select resin (Sigma) with an imidizole gradient from 20-300 mM and eluted fractions were analyzed on analytical SDS-PAGE. […] Fluorescence polarization is given as milli-polarization (mP) value, which is obtained from equation (1):
mP=1000*(S−P)/(S+P), (Eq. 1)
(§1) The assay was initially set up in 20 μl well volume in 384 well plate (Corning Life Sciences), and measurements were carried out using PheraStar FS plate reader (BMG LABTECH, Ortenberg, Germany) in quadruplicate. Peptide and protein stock solutions were diluted to desired concentration with assay buffer (50 mM BIS-TRIS pH 7.4, 0.05% Tween20, 1 mM DTT). FAM-labeled peptides were protected from light during the experiment to avoid photobleaching. Optimal concentration of fluorescein (FAM) labeled-peptides for the assay was determined by measuring the limit of detection (LOD), signal-to-background ratio (S/B), and stability of mP value over series of peptide concentrations. In the binding assay, the concentration of FAM-peptide was kept constant, and the FP was measured over the range of target protein concentrations. The peptide dissociation constant (KD) was obtained by fitting the binding curve into Michaelis-Menten kinetics in GraphPad Prism-software (GraphPad Software, Inc., CA, USA).
FAM-TT-1 and p32 solutions are prepared just before experiment, and stored on ice during the screen; the peptide is shielded from light. • 1. […] Dispense 1.5 μL of assay buffer (50 mM BIS-TRIS pH 7.4, 0.05% Tween 20, 1 mM DTT) into columns 1-4 • 3. […] Dispense 37.5 nL of compounds (2 mM) into columns 5-44 • 5. Spin plate • 6. Incubate 20 min • 7. Dispense 1.5 μL FAM-TT-1 peptide (20 nM) into all columns • 8. Shake plate and spin plate • 9. Incubate 25 min • 10. Read plate on PheraStar FS
Chemical library of ˜50,000 compounds from ChemBridge (San Diego, Calif.) was screened in High-Throughput Screening Facility at Conrad Prebys Center for Chemical Genomics (Sanford-Burnham Medical Research Institute, La Jolla, Calif.). […] Peptide and protein were diluted immediately prior to screening, kept on ice during screening, and FAM-peptide was protected from light throughout the experiment. […]

[2] = biological target: T2, b1b2 domain of neuropilin-1 (NRP-1) (Homo sapiens, UniProt O14786); assay: Fluorescence polarization binding of FAM-peptide to NRP-1
T2 sequence (O14786 273-586 limits assumed): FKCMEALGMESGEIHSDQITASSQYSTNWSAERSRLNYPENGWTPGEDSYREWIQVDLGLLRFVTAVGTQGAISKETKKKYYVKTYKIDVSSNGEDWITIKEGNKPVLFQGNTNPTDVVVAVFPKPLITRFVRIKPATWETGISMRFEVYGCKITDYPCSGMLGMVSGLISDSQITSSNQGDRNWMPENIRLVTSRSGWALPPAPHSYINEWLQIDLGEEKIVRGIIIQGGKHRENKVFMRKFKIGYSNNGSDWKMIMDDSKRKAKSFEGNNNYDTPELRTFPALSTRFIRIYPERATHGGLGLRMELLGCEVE
Protocol: FIG. 8 is a graph showing specificity of TT1 binding. Specificity of TT1 was further evaluated by measuring the binding of FAM-TT1 to recombinant non-target protein, b1b2 domain of neuropilin-1 (NRP-1). The binding was studied by fluorescence polarization. […] Each data point presents average±S.D., n=4-6.
as §1, with “USA). […]” for “USA).”

p32 protein [3] = biological target: T1, p32 protein; assay: TT1 phage binding inhibition assay (ELISA-type); details: 100 μM compound
Protocol: The binding of individual phage to p32 was verified using ELISA-type of phage binding assay. 96-well plates (Corning Life Sciences, Tewksbury, Mass., USA) were coated with 100 μL of 5 μg/mL p32 in PBS at 4° C. overnight, washed 3 times with 200 μL of PBST (PBS+0.05% Tween-20), blocked with 200 μL of 0.5% bovine serum albumin (BSA) in PBST for 1 h at 37° C., and washed 3 times with PBST. Phages (1.11*10^8 pfu in 100 μL PBST) were added to p32-coated/BSA-blocked wells, the plate was incubated at 4° C. overnight, and washed 3 times with PBST. Subsequently, the plates were incubated with 100 μL in-house prepared polyclonal rabbit anti-T7 antibody diluted 1:1000 in PBST for 1 h at 4° C., and washed 3 times with washing buffer. Horseradish peroxidase (HRP)-labeled anti-rabbit IgG (Sigma-Aldrich) was diluted 1:1000 in PBS, and 100 μL was added to the wells, followed by 1 h incubation at 4° C. and washing 3 times. Next, 100 μL of OPD silver and gold substrate (Sigma-Aldrich) was added to the wells and incubated at room temperature until visible color was observed (<30 min). The reaction was stopped by adding 50 μL of 1M H2SO4, and the plate was read at 492 nm (Varioskan Flash, Thermo Scientific, Waltham, Mass., USA).
The ability to inhibit TT1-phage binding to p32 protein was used as a secondary assay to verify the hit compounds. The competition assay was based on the phage binding assay described above with minor modifications. ELISA plates were coated with 2.5 μg/mL p32, incubated with phages (1.11*10^8 pfu in 100 μL PBST) and 100 μM hit compounds at 4° C. overnight, and followed by antibody incubation and chromogenic reaction. Negative controls included DMSO at concentration it was used to dissolve the hit compounds.

b1b2 domain of NRP-1 = biological target: T3, b1b2 domain of NRP-1 (Homo sapiens, UniProt O14786); assay: Fluorescence polarization displacement of FAM-RPARPAR from NRP-1; assay type: binding; details: for effect on RPARPAR peptide binding to NRP-1: specificity assay, up to 100 μM
T3 sequence (O14786 273-586 limits assumed): T2 sequence (O14786 273-586 limits assumed)
Protocol: Results of the high-throughput screen were confirmed in dose response tests. 8.25 μM to 100 μM dilutions of the compounds that displaced FAM-peptide from p32 were used in competition with FAM-peptide as described in previous section. Specificity of the hit compounds was verified by examining their binding to a different protein, b1b2 domain of NRP-1 (Vander Kooi et al., Proc. Natl. Acad. Sci. U.S.A., 10.1073/pnas.0700043104). Experimental method for NRP-1 b1b2 was developed and validated similarly to p32, using FAM-RPARPAR peptide as a known peptide ligand for NRP-1. The displacement of FAM-RPARPAR from NRP-1 protein by the hit compounds was studied in 384-well format, as described above.

atherosclerotic plaques = assay: Plaque homing of FAM-labeled peptides in ApoE null mice on high-fat diet; details: 100 μg FAM-labeled peptide IV, one hour
From the text: One hour later, the mice can be perfused through the heart under anesthesia, and tissues were collected. Accumulation of FAM-labeled peptides can be visualized with UV excitation. Atherosclerotic aortas can be sectioned at the aortic root level, and examined by confocal microscopy. […] CD31 staining can be used to visualize the endothelium over the plaque.
One hour later, the mice were perfused through the heart under anesthesia, and tissues were collected. Accumulation of FAM-labeled peptides was visualized with UV excitation. Atherosclerotic aortas were sectioned at the aortic root level, and examined by confocal microscopy. […] CD31 staining was used to visualize the endothelium over the plaque.

p32 protein [4] = biological target: T1, p32 protein; assay: NMR 1D 1H-aliph spectra of p32 with compounds; assay type: binding; details: 5 μM p32; compounds 100 and 500 μM; TT1 70 μM
Protocol: FIGS. 3A and 3B are graphs showing NMR based evaluation of binding of compounds 4014008 and 7933989 to P32 protein. The ID ^1H-aliph spectra of 5 μM P32 in the absence (bottom) and presence of compounds #4014008 (A) and #7933989 (B) at 100 μM (second from bottom) and 500 μM (second from top) were collected. As a control, the spectrum of p32 in the presence of the known peptide binder, TT1 at 70 μM, was also collected (top).
All the NMR experiments were carried out on a Bruker Avance 700 spectrometer equipped with a TCI cryoprobe at T=293 K. For structure determinations, the peptide concentration was 100 μM in the NMR buffer in presence of 150 μM of ZnCl2. One-dimensional (1D) 1H spectra were acquired with a spectral width of 8417.51 Hz, relaxation delay 1.0 s, 8 k data points for acquisition and 16 k for transformation.

[5] = in vivo
From the text: Toxicity of peptide, compounds, and compositions can be assessed for toxicity. Useful factors for assessing toxicity include body weight, serum cholesterol and triglyceride, and weight of liver and spleen. Liver and kidney functions can be monitored by blood tests.

Compound	inhibition at 25 µM (p32 protein [1])	inhibition at 100 µM (p32 protein [1])	inhibition at 100 µM (p32 protein [3])	effect on RPARPAR peptide binding to NRP-1 (b1b2 domain of NRP-1)	also measured
RPARPAR [reference compound]	–	–	–	–	inhibition (dislocation) of FAM-TT1 binding to p32 by unlabeled peptide (p32 protein [1]; unlabeled peptides titrated up to 100 μM): not and did not dislocate FAM-TT1; binding to b1b2 domain of NRP-1 [2]: showed strong affinity
Nc1nccc(N2CCC(C3CCN(Cc4cccnc4)CC3)C2)n1 (stereo not drawn) [Compound 54778828, 4-{3-[1-(3-pyridinylmethyl)-4-piperidinyl]-1-pyrrolidinyl}-2-pyrimidinami]	29.4%	–	–	–	dose-dependent inhibition of FAM-TT1 binding to p32 (p32 protein [1]): only marginally active
Cc1ccc(-c2cnc(N)c(N3CCC(O)C3)n2)c(-n2cccn2)c1 (stereo not drawn) [Compound 88361068, 1-{3-amino-6-[4-methyl-2-(1H-pyrazol-1-yl)phenyl]pryazin-2-yl}pyrrolidin-3-]	30.8%	65 to 75%	20%	no effect	–
FAM-LyP-1: FAM-labeled LyP-1 peptide (CGNKRTRGC; disulfide 1-9 (inferred); not fully specified (N-terminus))	–	–	–	–	homing to atherosclerotic plaques (atherosclerotic plaques): signal was seen inside plaques
CC1(C)CN=C(NCCNC2=NCC(C)(C)S2)S1 [Compound 7933989]	40.5%	80%	75%	no effect	perturbations in 1D 1H-aliphatic spectra of p32 (p32 protein [4]): caused similar perturbations; also recorded: shift in the peak at around −0.3 ppm
Cc1c(O)ccc2c(C(F)(F)F)cc(=O)oc12 [Compound 6367577, 7-hydroxy-8-methyl-4-(trifluoromethyl)-2H-chromen-2-one]	39.5%	–	–	–	dose-dependent inhibition of FAM-TT1 binding to p32 (p32 protein [1]): less effective than the other active compounds; FP level in the presence of compound (b1b2 domain of NRP-1; highest concentration): negative value
CN1CCc2onc(-c3ccc(F)c(F)c3)c2C1 [Compound 91984046]	22.5%	65 to 75%	20%	–	–
FAM-TT1: FAM-labeled TT1 peptide, 5(6)-carboxyfluorescein with 6-aminohexanoic acid spacer ({FAM-Ahx}-CKRGARSTC; disulfide 1-9 (inferred))	–	–	–	–	homing to atherosclerotic plaques (atherosclerotic plaques): signal was seen inside plaques; binding to b1b2 domain of NRP-1 [2]: did not show binding
C[C@@H](O)[C@@H]1NC(=O)[C@H](CCCNC(=N)N)NC(=O)[C@H](CCCCN)NC(=O)[C@H](CC(N)=O)NC(=O)CNC(=O)[C@@H](N)CSSC[C@@H](C(=O)O)NC(=O)CNC(=O)[C@H](CCCNC(=N)N)NC1=O [LyP-1, CGNKRTRGC]	–	–	–	–	toxicity (body weight, serum cholesterol and triglyceride, weight of liver and spleen, liver and kidney functions) [5]: no differences between LyP-1 and control groups
Cc1nc2nc3c(cn2n1)C(=O)CC(c1cccs1)C3 (stereo not drawn) [Compound 9132086, 2-methyl-6-(2-thienyl)-6,7-dihydro[1,2,4]triazolo [5,1-b]quinazolin-8(5H)-one]	20.7%	65 to 75%	20%	no effect	–
